Results taken from patent publication US20220062258A1, “Heterocyclic derivatives” (Merck Patent GmbH, priority 2019, published 2022).

Assays:
[1] = system: HUVEC primary endothelial cells; test: HUVEC proliferation assay (CyQUANT Direct); type: cell-based; conditions: Homo sapiens, 72 h, 3 days incubation
Description: HUVEC Proliferation Assay
Proliferation of HUVEC primary endothelial cells was used as cell-based mechanistical assay.^25 Applying the CyQUANT@ Direct Cell Proliferation Assay (Invitrogen C35011) which is based on a cell-permeant fluorescent DNA-binding dye, DNA content is used as a direct measure for cell number. Pooled HUVEC cells (Promocell C-12203) are cultivated in the medium supplied by Promocell (Cat No C-22020) for maximum 4 passages. For the assay 500 cells/well are seeded into black 384-well culture plates with clear bottom in 70 μl culture medium and incubated for 6 hours at 37° C., 5% CO2. 10 μl prediluted test compounds are added and cells incubated for 3 days at 37° C., 5% CO2 before measurement of DNA content. CyQUANT detection reagent is prepared according to the manufacturers protocol, 20 μl/well added and incubated at 37° C., 5% CO2 for at least 1 h before measurement of fluorescence at Envision multimode reader (Perkin-Elmer, Waltham) with excitation 480 nm and emission 535 nm (bottom read mode). The assay is performed as dose response with 10 compound dilutions. Inhibitory values (IC50) were determined using the program ASSAY ANALYZER® from GeneData (Basel, Switzerland).

[2] = target: MetAP-2 (Homo sapiens, UniProt P50579); test: Biochemical activity testing of MetAP-2 (enzyme-coupled assay, Met-Ala-Ser substrate); parameters: N-terminal His tag human rec MetAP2 (prepared in house, AA 2-478, final concentration (fc) 123 nM); His tag (N); TEV cleavage site (N); made in house
Description: Biochemical Activity Testing of MetAP-2
MetAP-2 activity was determined by an enzyme-coupled assay using the tripeptide Met-Ala-Ser (MAS) as substrate and recombinant human MetAP-2 (His-Tev-MetAP-2, prepared at Merck). The released methionine is converted by L-amino acid oxidase (AAO) to oxidized Methionine and hydrogen peroxide is released. In a second step horse radish peroxidase catalyzes the oxidation of the leuko dye dianisidine to oxidized dianisidine using hydrogen peroxide as co-substrate. The produced dianisidine ox was detected photometrically as increase in absorbance at 450 nm. Met-AP2 activity was determined in a kinetic measurement mode. The release of one molecule methionine corresponds to the production of one molecule dianisidine ox. The MetAP2 enzymatic activity is directly corresponding to the increase in absorbance per time.
In detail, the assay was performed in 384 well microtiter plate (Greiner 78110 MTP, transparent) in a total reaction volume of 50 μl at 22° C. 0.35 μg of N-terminal His tag human rec MetAP2 (prepared in house, AA 2-478, final concentration (fc) 123 nM), 1 unit horse radish Peroxidase (Roche, Mannheim), 0.02 unit L-amino acid oxidase (Merck, Darmstadt), 0.6 mM dianisidine (Merck, Darmstadt, dissolved in 50 mM HCl, 10% DMSO) were incubated in the absence or presence of the test compound (10 dilution concentrations) in 100 mM Hepes, 50 mM NaCl, 50 μM MnCl2 at pH 7.0 for 15 min at 22° C. The reaction was started by the addition of 500 μM (fc) MAS peptide (Merck, Darmstadt). After mixing the first absorbance measurement was performed on an Envision multimode reader (Perkin-Elmer, Waltham) at wavelength of 450 nm. The reaction was incubated at 22° C. for additional 45 min and the second absorbance measurement was performed. The increase of absorbance per time was determined. The control value used was the inhibitor-free reaction with 0.5% DMSO (fc). As pharmacological inhibitor control Fumagillin (Merck, Darmstadt) in a final concentration of 5 μM was used. The inhibitory values (IC50) were determined using the program ASSAY ANALYZER® from GeneData (Basel, Switzerland).

Chain of MetAP-2 (P50579 2-478): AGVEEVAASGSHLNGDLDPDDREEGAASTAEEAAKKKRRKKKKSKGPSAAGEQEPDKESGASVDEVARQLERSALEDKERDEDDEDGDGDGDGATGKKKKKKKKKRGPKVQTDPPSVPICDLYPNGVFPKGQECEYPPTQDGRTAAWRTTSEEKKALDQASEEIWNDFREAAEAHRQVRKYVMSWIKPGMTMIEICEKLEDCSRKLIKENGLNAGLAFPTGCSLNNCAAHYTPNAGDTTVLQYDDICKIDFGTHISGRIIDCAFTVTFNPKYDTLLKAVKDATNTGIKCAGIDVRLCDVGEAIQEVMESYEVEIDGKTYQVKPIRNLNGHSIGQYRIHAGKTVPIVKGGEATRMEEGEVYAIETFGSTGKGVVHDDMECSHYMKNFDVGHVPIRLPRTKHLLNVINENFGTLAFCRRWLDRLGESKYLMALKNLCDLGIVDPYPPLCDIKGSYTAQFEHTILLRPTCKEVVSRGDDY

IC50 [2]	SMILES	IC50 [1]
550 nM	Cc1ncsc1-c1ccc(CNC(=O)[C@@H]2C[C@@H](O)CN2C(=O)[C@@H](NC(=O)CCCCCNC(=O)c2cc3cc(N4CC[C@@](O)(C(=O)NCc5cc(F)cc(F)c5)C4=O)ccc3[nH]2)C(C)(C)C)cc1 (mixture of isomers) [Compound A3, (3RS)—N-[(3,5-difluorophenyl)methyl]-3-hydroxy-1-{2-[(5-{[(2S)-1-[(2S,4R)-4-hydroxy-2-({[4-(4-methyl-1,3-thiazol-5-yl)phenyl]methyl}carbamoyl)pyrrolidin-1-yl]-3,3-dimethyl-1-oxobutan-2-yl]carbamoyl}pentyl)carbamoyl]-1H-indol-5-yl}-2-oxopyrrolidine-3-carboxamide]	30 µM
480 nM	O=C1CCC(N2C(=O)c3ccc(NCCCCCNC(=O)c4cc5cc(N6CCC(O)(C(=O)NCc7cc(F)cc(F)c7)C6=O)ccc5[nH]4)cc3C2=O)C(=O)N1 (stereo not drawn) [Compound A4, 5-[3-[(3,5-difluorophenyl)methylcarbamoyl]-3-hydroxy-2-oxo-pyrrolidin-1-yl]-N-[5-[[2-(2,6-dioxo-3-piperidyl)-1,3-dioxo-isoindolin-5-yl]amino]pentyl]-1H-indole-2-carboxamide]	1.6 µM
330 nM	O=C1CCC(N2C(=O)c3cccc(NCCOCCOCCNC(=O)c4cc5cc(N6CCC(O)(C(=O)NCc7cc(F)cc(F)c7)C6=O)ccc5[nH]4)c3C2=O)C(=O)N1 (stereo not drawn) [Compound A5, 5-[3-[(3,5-difluorophenyl)methylcarbamoyl]-3-hydroxy-2-oxo-pyrrolidin-1-yl]-N-[2-[2-[2-[[2-(2,6-dioxo-3-piperidyl)-1,3-dioxo-isoindolin-4-yl]amino]ethoxy]-ethoxy]ethyl]-1-H-indole-2-carboxamide]	5.8 µM
370 nM	Cc1ncsc1-c1ccc(CNC(=O)[C@@H]2C[C@@H](O)CN2C(=O)[C@@H](NC(=O)COCCOCCNC(=O)c2cc3cc(N4CCC(O)(C(=O)NCc5cc(F)cc(F)c5)C4=O)ccc3[nH]2)C(C)(C)C)cc1 (stereo partly drawn) [Compound A6, 5-[3-[(3,5-difluorophenyl)methylcarbamoyl]-3-hydroxy-2-oxo-pyrrolidin-1-yl]-N-[2-[2-[2-[[(1S)-1-[(2S,4R)-4-hydroxy-2-[[4-(4-methylthiazol-5-yl)phenyl]methylcarbamoyl]pyrrolidine-1-carbonyl]-2,2-dimethyl-propyl]amino]-2-oxoethoxy]ethoxy]ethyl]-1H-indole-2-carboxamide]	30 µM
320 nM	Cc1ncsc1-c1ccc(CNC(=O)[C@@H]2C[C@@H](O)CN2C(=O)[C@@H](NC(=O)COCCOCCOCCOCCNC(=O)c2cc3cc(N4CCC(O)(C(=O)NCc5cc(F)cc(F)c5)C4=O)ccc3[nH]2)C(C)(C)C)cc1 (stereo partly drawn) [Compound A7]	7.3 µM
330 nM	Cc1ncsc1-c1ccc(CNC(=O)[C@@H]2C[C@@H](O)CN2C(=O)[C@@H](NC(=O)COCCOCCOCCOCCOCCNC(=O)c2cc3cc(N4CCC(O)(C(=O)NCc5cc(F)cc(F)c5)C4=O)ccc3[nH]2)C(C)(C)C)cc1 (stereo partly drawn) [Compound A8, 5-[3-[(3,5-difluorophenyl)methylcarbamoyl]-3-hydroxy-2-oxo-pyrrolidin-1-yl]-N-[2-[2-[2-[2-[2-[2-[[(1S)-1-[(2S,4R)-4-hydroxy-2-[[4-(4-methylthiazol-5-yl)phenyl]-methylcarbamoyl]pyrrolidine-1-carbonyl]-2,2-dimethyl-propyl]amino]-2-oxoethoxy]ethoxy]ethoxy]ethoxy]ethoxy]ethyl]-1H-indole-2-carboxamide]	30 µM
